In US20230143345A1, “PHARMACEUTICAL COMPOSITION FOR PREVENTION OR TREATMENT OF DISEASES CAUSED BY SARS-COV-2” (DONG WHA PHARM. CO., LTD., priority 2020, published 2023):
“And” between values parts separate entries of the source, which are not always exact repeats. Equal entries are not always repeated. Where two headings read alike, the source gives them in different places.

Legend:
SARS-CoV-2 [1] = test: microbe, parasite or virus in culture; type: cell-based
[2] = Cell viability of VERO cells by WST-1 assay (Example 3); conditions: African green monkey
SARS-CoV-2 [3] = test: microbe, parasite or virus in culture; type: cell-based; conditions: Severe acute respiratory syndrome coronavirus 2, read-out: SARS-CoV-2 virus 50% inhibitory ability (IC50 value); VERO cells infected at MOI 0.1 for one hour, then drug; culture fluid after 48 hours, qRT-PCR
Vero cell lines = test: Cell viability of Vero cells in the SARS-CoV-2 inhibition experiment (Example 2)

In the case of CCC(CC)COC(=O)[C@H](C)N[P@](=O)(OC[C@H]1O[C@@](C#N)(c2ccc3c(N)ncnn23)[C@H](O)[C@@H]1O)Oc1ccccc1 [Remdesivir], the inhibition at 6.25 µM (SARS-CoV-2 [1]; Severe acute respiratory syndrome coronavirus 2, Vero, 24 h, concentration 6.25 uM, read-out: SARS-CoV-2 virus inhibitory ability (%, average ± standard deviation)) is reported as 10.8 ± 43.8%, the inhibition at 12.5 µM (SARS-CoV-2 [1]; Severe acute respiratory syndrome coronavirus 2, Vero, 24 h, concentration 12.5 uM, read-out: SARS-CoV-2 virus inhibitory ability (%, average ± standard deviation)) is reported as 63.6 ± 1.23% and the inhibition at 25 µM (SARS-CoV-2 [1]; Severe acute respiratory syndrome coronavirus 2, Vero, 24 h, concentration 25 uM, read-out: SARS-CoV-2 virus inhibitory ability (%, average ± standard deviation)) is reported as 84.6 ± 2.21%. For the same molecule, the inhibition at 50 µM (SARS-CoV-2 [1]; Severe acute respiratory syndrome coronavirus 2, Vero, 24 h, concentration 50 uM, read-out: SARS-CoV-2 virus inhibitory ability (%, average ± standard deviation)) was 94.38 ± 0.41%, the IC50 (SARS-CoV-2 [1]; Severe acute respiratory syndrome coronavirus 2, Vero, 24 h, read-out: SARS-CoV-2 virus 50% inhibitory ability (IC50 value)) was 10.8 µM and the “SARS-CoV-2 virus inhibitory ability (%, average ± standard deviation)” value (SARS-CoV-2 [1]; concentration 0.10 uM, 0.1 µM) was −2.24 ± 7.45%. For the same molecule, the “SARS-CoV-2 virus inhibitory ability (%, average ± standard deviation)” value (SARS-CoV-2 [1]; concentration 0.20 uM, 0.2 µM) was 2.60 ± 1.90% and 7.2 ± 0.17%, the “SARS-CoV-2 virus inhibitory ability (%, average ± standard deviation)” value (SARS-CoV-2 [1]; concentration 0.39 uM, 0.39 µM) was −1.29 ± 2.86% and 4.8 ± 4.21% and the “SARS-CoV-2 virus inhibitory ability (%, average ± standard deviation)” value (SARS-CoV-2 [1]; concentration 1.56 uM, 1.56 µM) was 0.65 ± 5.05% and 7.4 ± 1.96%. For the same molecule, the “SARS-CoV-2 virus inhibitory ability (%, average ± standard deviation)” value (SARS-CoV-2 [1]; concentration 3.13 uM, 3.13 µM) was 5.89 ± 3.28% and 11.8 ± 0.80%, the “SARS-CoV-2 virus inhibitory ability (%, average ± standard deviation)” value (SARS-CoV-2 [1]; concentration 6.25 uM, 6.25 µM) was 16.2 ± 2.56% and the “SARS-CoV-2 virus inhibitory ability (%, average ± standard deviation)” value (SARS-CoV-2 [1]; concentration 12.5 uM, 12.5 µM) was 47.9 ± 0.01%. The “SARS-CoV-2 virus inhibitory ability (%, average ± standard deviation)” value (SARS-CoV-2 [1]; concentration 25 uM, 25 µM) was 82.1 ± 1.40%, the “SARS-CoV-2 virus inhibitory ability (%, average ± standard deviation)” value (SARS-CoV-2 [1]; concentration 50 uM, 50 µM) was 93.5 ± 1.80% and the IC50 (SARS-CoV-2 [1]; read-out: SARS-CoV-2 virus 50% inhibitory ability (IC50 value)) was 12.7 µM.
For CCN(CCO)CCCC(C)Nc1ccnc2cc(Cl)ccc12 (stereo not drawn) [Hydroxy-chloroquine, reference compound], the CC50 at 48 h [2] was 160 µM and the IC50 (SARS-CoV-2 [3]) was 9.33 µM.
In the case of CCN(CC)CCCC(C)Nc1ccnc2cc(Cl)ccc12 (stereo not drawn) [Chloroquine], the “Cell viability (%, average ± standard deviation)” value (Vero cell lines; concentration 0.10 uM) is reported as 83.10 ± 6.34%, the “Cell viability (%, average ± standard deviation)” value (Vero cell lines; concentration 0.20 uM) is reported as 87.70 ± 0.37% and the “Cell viability (%, average ± standard deviation)” value (Vero cell lines; concentration 0.39 uM) is reported as 83.14 ± 3.44%. The “Cell viability (%, average ± standard deviation)” value (Vero cell lines; concentration 1.56 uM) was 89.11 ± 4.21%, the “Cell viability (%, average ± standard deviation)” value (Vero cell lines; concentration 3.13 uM) was 97.41 ± 1.82% and the “Cell viability (%, average ± standard deviation)” value (Vero cell lines; concentration 6.25 uM) was 90.84 ± 3.72%. For the same molecule, the “Cell viability (%, average ± standard deviation)” value (Vero cell lines; concentration 12.5 uM) was 83.63 ± 0.73%, the “Cell viability (%, average ± standard deviation)” value (Vero cell lines; concentration 25 uM) was 71.29 ± 6.06% and the “Cell viability (%, average ± standard deviation)” value (Vero cell lines; concentration 50 uM) was 59.69 ± 1.38%. For the same molecule, the inhibition at 0.1 µM (SARS-CoV-2 [1]; Severe acute respiratory syndrome coronavirus 2, Vero, 24 h, concentration 0.10 uM, Vero cells, 24 h, read-out: SARS-CoV-2 virus inhibitory ability (%, average ± standard deviation)) was -2.83 ± 2.09%, the inhibition at 0.2 µM (SARS-CoV-2 [1]; Severe acute respiratory syndrome coronavirus 2, Vero, 24 h, concentration 0.20 uM, Vero cells, 24 h, read-out: SARS-CoV-2 virus inhibitory ability (%, average ± standard deviation)) was -4.26 ± 0.03% and the inhibition at 0.39 µM (SARS-CoV-2 [1]; Severe acute respiratory syndrome coronavirus 2, Vero, 24 h, concentration 0.39 uM, Vero cells, 24 h, read-out: SARS-CoV-2 virus inhibitory ability (%, average ± standard deviation)) was -2.86 ± 0.21%. The inhibition at 1.56 µM (SARS-CoV-2 [1]; Severe acute respiratory syndrome coronavirus 2, Vero, 24 h, concentration 1.56 uM, Vero cells, 24 h, read-out: SARS-CoV-2 virus inhibitory ability (%, average ± standard deviation)) was 3.52 ± 6.42%, the inhibition at 3.13 µM (SARS-CoV-2 [1]; Severe acute respiratory syndrome coronavirus 2, Vero, 24 h, concentration 3.13 uM, Vero cells, 24 h, read-out: SARS-CoV-2 virus inhibitory ability (%, average ± standard deviation)) was 61.1 ± 7.72% and the inhibition at 6.25 µM (SARS-CoV-2 [1]; Severe acute respiratory syndrome coronavirus 2, Vero, 24 h, concentration 6.25 uM, Vero cells, 24 h, read-out: SARS-CoV-2 virus inhibitory ability (%, average ± standard deviation)) was 97.7 ± 0.16%. The inhibition at 12.5 µM (SARS-CoV-2 [1]; Severe acute respiratory syndrome coronavirus 2, Vero, 24 h, concentration 12.5 uM, Vero cells, 24 h, read-out: SARS-CoV-2 virus inhibitory ability (%, average ± standard deviation)) was 99.31 ± 0.39%, the inhibition at 25 µM (SARS-CoV-2 [1]; Severe acute respiratory syndrome coronavirus 2, Vero, 24 h, concentration 25 uM, Vero cells, 24 h, read-out: SARS-CoV-2 virus inhibitory ability (%, average ± standard deviation)) was 98.93 ± 0.07% and the inhibition at 50 µM (SARS-CoV-2 [1]; Severe acute respiratory syndrome coronavirus 2, Vero, 24 h, concentration 50 uM, Vero cells, 24 h, read-out: SARS-CoV-2 virus inhibitory ability (%, average ± standard deviation)) was 99.4 ± 1%. It also gave an IC50 (SARS-CoV-2 [1]; Severe acute respiratory syndrome coronavirus 2, Vero, 24 h, read-out: SARS-CoV-2 virus 50% inhibitory ability (IC50 value), Vero cells dosed while being infected, 24 h, compounds) of 8.78 µM.
